# Values joined by “and” are separate entries in the source; they are usually repeats but may differ in a detail not shown here. Identical values can stand only once.
# Target: T1, canine TRPM8 (Canis lupus familiaris, UniProt Q1A7N1)
# T1 construct: expressed in transfected cells
# Experiment: In vitro canine TRPM8 functional assay (Ca2+-sensitive dye, icilin activation; Table 4 TRPM8 Screening)
# Assay type: cell-based
# Conditions: compound at 0.5 μM; HEK293 cells expressing canine TRPM8, icilin activation
# Description: The functional activity of compounds of Formula (I) was determined by measuring changes in intracellular calcium concentration using a Ca^2+-sensitive fluorescent dye. The changes in fluorescent signal were monitored by a fluorescence plate reader, either a FLIPR™ (Molecular Devices) or FDSS (Hamamatsu).
# HEK293 cells stably expressing canine TRPM8 were routinely grown as monolayers in Dulbecco's minimum essential medium supplemented with 10% FBS, 1 mM L-glutamine, 100 units/mL penicillin, 100 ug/mL streptomycin and 400 μg/mL G418. Cells were maintained in 5% CO2 at 37° C. At 24 hrs prior to assay, cells were seeded in clear-base poly-D-lysine coated 384-well plates (BD Biosciences, NJ, USA) at a density of 5,000 cells per well in culture medium and grown overnight in 5% CO2 at 37° C. On assay day, growth media was removed and cells were loaded with Calcium 3 Dye (Molecular Devices) for 35 min at 37° C., under 5% CO2 and then for 25 min at room temperature and atmosphere. Subsequently, cells were tested for agonist-induced increases in intracellular Ca^2+ levels using FLIPR™ or FDSS. Cells were challenged with a compound of Formula (I) (at varying concentrations) and intracellular Ca^2+ was measured for 5 min prior to the addition of icilin to all wells to achieve a final concentration which produces approximately an 80% maximal response.
# Basal FI was subtracted prior to normalizing data to percent of maximal response. Curves were generated using the average of quadruplicate wells for each data point, were analyzed using nonlinear regression of either sigmoidal dose response or sigmoidal dose response (variable slope). Finally, the EC50 and IC50 values were calculated with the best-fit dose curve determined by GraphPad Prism.
# T1 sequence (Q1A7N1 1-1104): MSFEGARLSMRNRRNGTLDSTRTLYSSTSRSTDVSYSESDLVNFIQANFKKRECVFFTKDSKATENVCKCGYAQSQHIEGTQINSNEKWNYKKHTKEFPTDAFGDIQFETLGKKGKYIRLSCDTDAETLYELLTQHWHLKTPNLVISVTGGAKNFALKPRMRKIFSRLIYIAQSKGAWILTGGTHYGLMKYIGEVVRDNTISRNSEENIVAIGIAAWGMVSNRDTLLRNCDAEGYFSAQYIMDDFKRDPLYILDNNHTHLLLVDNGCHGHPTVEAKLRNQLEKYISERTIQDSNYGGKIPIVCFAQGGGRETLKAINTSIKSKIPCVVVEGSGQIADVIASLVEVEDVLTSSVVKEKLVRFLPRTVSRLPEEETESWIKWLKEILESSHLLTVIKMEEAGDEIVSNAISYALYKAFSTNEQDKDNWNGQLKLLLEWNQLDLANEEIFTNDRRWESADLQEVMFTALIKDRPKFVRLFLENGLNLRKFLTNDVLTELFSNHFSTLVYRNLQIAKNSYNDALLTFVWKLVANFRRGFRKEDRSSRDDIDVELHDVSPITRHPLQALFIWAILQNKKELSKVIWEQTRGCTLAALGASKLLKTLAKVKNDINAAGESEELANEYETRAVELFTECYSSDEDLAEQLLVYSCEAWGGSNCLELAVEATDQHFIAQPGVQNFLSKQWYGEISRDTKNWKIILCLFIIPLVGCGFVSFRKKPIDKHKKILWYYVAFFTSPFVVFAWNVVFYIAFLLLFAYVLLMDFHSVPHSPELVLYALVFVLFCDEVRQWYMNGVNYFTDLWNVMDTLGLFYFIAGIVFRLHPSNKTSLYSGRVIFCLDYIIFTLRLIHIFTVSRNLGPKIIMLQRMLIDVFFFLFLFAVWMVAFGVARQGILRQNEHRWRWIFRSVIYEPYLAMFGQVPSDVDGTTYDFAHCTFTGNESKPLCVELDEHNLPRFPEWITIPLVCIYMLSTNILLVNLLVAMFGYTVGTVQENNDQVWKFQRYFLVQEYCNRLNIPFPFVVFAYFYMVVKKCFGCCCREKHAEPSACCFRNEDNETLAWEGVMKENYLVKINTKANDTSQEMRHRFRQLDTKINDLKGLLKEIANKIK
row,Compound,% I (0.5 μM)
1,CCOP(=O)(OCC)C(Cc1cccc(C(F)(F)F)c1)c1sc2ccccc2c1Br (stereo not shown) [Cpd 141],100%
2,"CCOP(=O)(OCC)C(Cc1ccc(OC(F)(F)F)cc1)c1sc2ccccc2c1Br (stereo not shown) [Cpd 155, [1-(3-Bromo-benzo[b]thiophen-2-yl)-2-(4-trifluoromethoxyphenyl)-ethyl]-phosphonic acid diethyl ester]",101% and 102%
3,CCOP(=O)(OCC)C(Cc1ccc(F)c(OC)c1)c1sc2ccccc2c1Br (stereo not shown) [Cpd 156],98%
4,COc1cc(CC(c2sc3ccccc3c2Br)P(=O)(OC(C)C)OC(C)C)ccc1F (stereo not shown) [Cpd 157],98%
5,CC(C)OP(=O)(OC(C)C)C(Cc1cccc(C(F)(F)F)c1Cl)c1sc2ccccc2c1Cl (stereo not shown) [Cpd 177],96%
6,CC(C)OP(=O)(OC(C)C)C(Cc1cc(C(F)(F)F)ccc1Cl)c1sc2ccccc2c1Cl (stereo not shown) [Cpd 178],79%
7,COCCOCCOP(=O)(OCCOCCOC)C(Cc1ccc(F)c(F)c1)c1sc2ccccc2c1Br (stereo not shown) [Cpd 210],62%
8,CCOP(=O)(OCC)C(Cc1ccc(F)c(F)c1)c1sc2ccccc2c1-c1cccc(C(=O)OC)c1 (stereo not shown) [Cpd 219],68%
9,CCOP(=O)(OCC)C(Cc1ccc(O)c(F)c1)c1sc2ccccc2c1Br (stereo not shown) [Cpd 226],34%
10,CC(C)OP(=O)(OC(C)C)C(Cc1ccc(O)c(F)c1)c1sc2ccccc2c1Br (stereo not shown) [Cpd 227],52%
11,CCOP(=O)(OCC)C(Cc1ccc(O)c(C(F)(F)F)c1)c1sc2ccccc2c1Br (stereo not shown) [Cpd 233],70%
12,"CC(C)OP(=O)(OC(C)C)[C@H](Cc1ccc(F)c(F)c1)c1sc2ccccc2c1Br [Cpd 235, (R)-[1-(3-Bromo-benzo[b]thiophen-2-yl)-2-(3,4-difluoro-phenyl)-ethyl]-phosphonic acid diisopropyl ester]",93%
13,"CC(C)OP(=O)(OC(C)C)[C@H](Cc1ccc(F)c(C(F)(F)F)c1)c1sc2ccccc2c1Br [Cpd 243, (R)-[1-(3-Bromo-benzo[b]thiophen-2-yl)-2-(4-fluoro-3-trifluoromethylphenyl)-ethyl]-phosphonic acid diisopropyl ester]",64%
14,CC(C)OP(=O)(OC(C)C)C(Cc1ccc(S(C)(=O)=O)cc1)c1sc2ccccc2c1Br (stereo not shown) [Cpd 252],44%
15,CCOP(=O)(OCC)C(Cc1cc(C(F)(F)F)ccc1Cl)c1sc2ccccc2c1Cl (stereo not shown) [Cpd 274],95%
16,CCOP(=O)(OCC)C(Cc1cc(O)cc(O)c1)c1sc2ccccc2c1Br (stereo not shown) [Cpd 322],45%
17,CCOP(=O)(OCC)C(Cc1ccc(O)cc1)c1sc2ccccc2c1Br (stereo not shown) [Cpd 324],54%
18,CC(C)OP(=O)(OC(C)C)C(Cc1cccc(O)c1)c1sc2ccccc2c1Br (stereo not shown) [Cpd 325],97%
19,CCCS(=O)(=O)n1c(C(Cc2ccc(F)c(C(F)(F)F)c2)P(=O)(OC(C)C)OC(C)C)c(Br)c2ccccc21 (stereo not shown) [Cpd 332],72%
20,(R)-[1-(3-Bromo-benzo[b]thiophen-2-yl)-2-(4-fluoro-phenyl)-ethyl]-phosphonic acid diisopropyl ester [Cpd 240],98% and 77%
21,(R)-[1-(3-Bromo-benzo[b]thiophen-2-yl)-2-(4-trifluoromethoxy-phenyl)ethyl]-phosphonic acid diisopropyl ester [Cpd 237],96% and 70%

# Same assay, conditions: compound at 0.5 μM; HEK293 cells expressing canine TRPM8, icilin activation; read-out: % I (0.5 μM)
row,inhibition at 0.5 µM [%],Compound
1,44,"CC(C)OP(=O)(OC(C)C)C(Cc1ccc(F)c(C(F)(F)F)c1)c1c(Br)c2ccccc2n1C(=O)OC(C)(C)C (stereo not shown) [Cpd 327, 3-Bromo-2-[1-(diisopropoxy-phosphoryl)-2-(4-fluoro-3-trifluoromethyl-phenyl)-ethyl]-indole-1-carboxylic acid tert-butyl ester]"
2,103,"CC(C)OP(=O)(OC(C)C)C(Cc1ccc(F)c(C(F)(F)F)c1)c1c(Br)c2ccccc2n1S(C)(=O)=O (stereo not shown) [Cpd 330, [1-(3-Bromo-1-methanesulfonyl-1H-indol-2-yl)-2-(4-fluoro-3-trifluoromethyl-phenyl)-ethyl]-phosphonic acid diisopropyl ester]"

# Same assay, conditions: compound at 1 μM; HEK293 cells expressing canine TRPM8, icilin activation
row,Compound,% I (1 μM)
1,CCOP(=O)(OCC)C(Cc1ccc(F)cc1Cl)c1cc2ccccc2s1 (stereo not shown) [Cpd 98],79%
2,CCOP(=O)(OCC)C(Cc1cc(C(F)(F)F)ccc1Cl)c1sc2ccccc2c1C (stereo not shown) [Cpd 99],100%
3,CCOP(=O)(OCC)C(Cc1cccc(Cl)c1Cl)c1cc2ccccc2s1 (stereo not shown) [Cpd 100],82%
4,CCOP(=O)(OCC)C(Cc1ccccc1C(F)(F)F)c1cc2ccccc2s1 (stereo not shown) [Cpd 102],86%
5,CCOP(=O)(Cc1cc2ccccc2s1)OCc1ccccc1Br (stereo not shown) [Cpd 110],11%
6,CCOP(=O)(Cc1cc2ccccc2s1)OCc1ccccc1 (stereo not shown) [Cpd 111],14%
7,CCOP(=O)(OCC)C(Cc1cc2c(cc1Cl)OCO2)c1cc2ccccc2s1 (stereo not shown) [Cpd 112],42%
8,CCOP(=O)(OCC)C(Cc1cc(C(F)(F)F)ccc1C(F)(F)F)c1sc2ccccc2c1C (stereo not shown) [Cpd 113],25%
9,CCOP(=O)(OCC)C(Cc1ccccc1-c1ccccc1)c1sc2ccccc2c1C (stereo not shown) [Cpd 115],69%
10,CCOP(=O)(OCC)C(Cc1ccc(F)c(F)c1)c1sc2c(C(F)(F)F)cccc2c1C (stereo not shown) [Cpd 116],64%
11,CCOP(=O)(OCC)C(Cc1ccc(F)c(F)c1)c1c(C)c2ccccc2[s+]1[O-] (stereo not shown) [Cpd 118],23%
12,CC(C)OP(=O)(OC(C)C)C(Cc1cc(C(F)(F)F)cc(Cl)c1F)c1cc2ccccc2s1 (stereo not shown) [Cpd 126],100%
13,CCOP(=O)(OCC)C(Cc1ccc(F)c(F)c1)c1cc2cccnc2s1 (stereo not shown) [Cpd 131],28%
14,CC(C)OP(=O)(OC(C)C)C(Cc1ccccc1F)c1sc2ccccc2c1Br (stereo not shown) [Cpd 196],100%
15,CC(C)OP(=O)(OC(C)C)C(Cc1ccccc1F)c1sc2cccc(Br)c2c1Br (stereo not shown) [Cpd 198],98%
16,CC(C)OP(=O)(OC(C)C)C(Cc1ccccc1F)c1sc2cc(Br)ccc2c1Br (stereo not shown) [Cpd 199],81%
17,CC(C)OP(=O)(OC(C)C)C(Cc1ccc(F)cc1)c1sc2cc(Br)ccc2c1Br (stereo not shown) [Cpd 200],81%
18,COP(=O)(OC)C(Cc1ccc(F)c(F)c1)c1sc2ccccc2c1Br (stereo not shown) [Cpd 201],100%
19,CCC(C)P(=O)(C(C)CC)C(Cc1ccc(F)c(F)c1)c1sc2ccccc2c1Br (stereo not shown) [Cpd 203],96%
20,CCOP(=O)(OCC)C(Cc1ccc(F)c(F)c1)c1cc2ccccc2o1 (stereo not shown) [Cpd 265],95%
21,"[2-(3,4-Difluoro-phenyl)-1-(3-methyl-benzo[b]thiophene-2-yl)-ethyl]-[3-(4-methoxy-phenyl)-propyl]-phosphonic acid ethyl ester [Cpd 135]",90%
22,"[2-(3,4-Difluoro-phenyl)-1-(3-methyl-benzo[b]thiophene-2-yl)-ethyl]-[3-(4-methoxy-phenyl)-propyl]-phosphonic acid ethyl ester [Cpd 136]",91%
23,"[2-(3,4-Difluoro-phenyl)-1-(3-methyl-benzo[b]thiophene-2-yl)-ethyl]-methyl-phosphonic acid ethyl ester [Cpd 30]",100% and 99%
24,"[2-(3,4-Difluoro-phenyl)-1-(3-methyl-benzo[b]thiophene-2-yl)-ethyl]-methyl-phosphonic acid ethyl ester [Cpd 106]",32%

# Same assay, conditions: compound at 5 μM; HEK293 cells expressing canine TRPM8, icilin activation
row,Compound,% I (5 μM) [%]
1,CCOP(=O)(Cc1cc2ccccc2s1)OCc1ccc(F)cc1 (stereo not shown) [Cpd 107],99
2,CCOP(=O)(Cc1cc2ccccc2s1)OCc1ccccc1Br (stereo not shown) [Cpd 110],96

# Tested on: Sprague-Dawley rats
# Experiment: CFA-induced paw radiant heat hypersensitivity
# Assay type: in vivo, rat
# Conditions: 30 mg/kg p.o., time 1 h
# Description: Intraplantar injection of Complete Freund's Adjuvant (CFA) in rodents results in a long-lasting inflammatory reaction, characterized by a pronounced hypersensitivity to both thermal and mechanical stimuli. This hypersensitivity peaks between 24-72 hours following injection and can last for several weeks. […] This paradigm also may be conducted with a multiple dosing or a prophylactic dosing regime designed to alter the course of hyperalgesia development. This test predicts the analgesic, anti-allodynic and antihyperalgesic effect of numerous effective clinical agents, including NSAIDS such as acetaminophen, aspirin and ibuprofen, and opioids such as morphine.
# Each rat was placed in a test chamber on a warm glass surface and allowed to acclimate for approximately 10 minutes. A radiant thermal stimulus (beam of light) was then focused through the glass onto the plantar surface of each hind paw in turn. The thermal stimulus was automatically shut off by a photoelectric relay when the paw was moved or when the cut-off time was reached (20 seconds for radiant heat at ˜5 Amps). An initial (baseline) response latency to the thermal stimulus was recorded for each animal prior to the injection of CFA. Twenty-four hours following intraplantar CFA injection, the response latency of the animal to the thermal stimulus was then re-evaluated and compared to the animal's baseline response time. […] Immediately following the post-CFA latency assessment, test compound or vehicle (usually Solutol, hydroxypropyl methylcellulose, hydroxypropyl beta-cyclodextrin or PEG-400) was administered i.p. or p.o. to rats. […] The percent reversal (% R) of hypersenstivitiy was calculated according to the following formula: % Reversal=(Treatment Response−CFA Response)/(Baseline Response−CFA Response)×100.
row,Compound,% Reversal [%]
1,CCOP(=O)(OCC)C(Cc1ccc(SC)cc1)c1sc2ccccc2c1Cl (racemic) [Cpd 299],23
2,CC(C)OP(=O)(OC(C)C)C(Cc1ccc(Cl)c(F)c1)c1sc2ccccc2c1Br (stereo not shown) [Cpd 190],45

# Same assay, conditions: 30 mg/kg p.o., time 2 h
row,Compound,% Reversal [%]
1,CCOP(=O)(OCC)C(Cc1ccc(F)c(Cl)c1)c1sc2ccccc2c1Br (racemic) [Cpd 244],45
